Assay results reported in article PMC10247784, “Physiological activation of human and mouse bitter taste receptors by bile acids” (Communications Biology, 2023).
Read-outs that look alike come from different tables or passages of the source.

Biological target: T1, mouse Tas2r117 (Mus musculus, UniProt Q7M715)
T1 construct: expressed in transfected cells; host or cells: HEK293T-Gα16gust44
T1 sequence (Q7M715 1-330): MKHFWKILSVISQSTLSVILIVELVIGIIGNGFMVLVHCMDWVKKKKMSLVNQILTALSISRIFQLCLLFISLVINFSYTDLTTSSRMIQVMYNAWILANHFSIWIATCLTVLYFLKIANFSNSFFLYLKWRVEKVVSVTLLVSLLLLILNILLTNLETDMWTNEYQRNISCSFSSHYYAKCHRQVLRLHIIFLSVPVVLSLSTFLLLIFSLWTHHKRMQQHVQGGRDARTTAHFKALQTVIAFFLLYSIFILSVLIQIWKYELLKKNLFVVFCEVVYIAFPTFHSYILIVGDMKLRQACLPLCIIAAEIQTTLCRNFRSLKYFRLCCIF
Assay: Calcium imaging assay (FLIPR), HEK293T-Gα16gust44 cells transfected with mouse Tas2r117
Format: cell-based
Method: This set of bile acids was chosen because of their commercial availability in high purities, their diversity within the class of bile acids and their previous detection and quantitation in human blood. Stock solutions were prepared in DMSO.
As basal growth medium for the HEK293T-Gα16gust44 cell line[17],[59] served Dulbecco’s modified eagle medium (DMEM) (Thermo Fisher Scientific, Darmstadt, Germany) supplemented with 10 % fetal bovine serum (Sigma-Aldrich, Steinheim, Germany), 2 mM L-glutamine (Sigma-Aldrich, Steinheim, Germany), 100 units/ml penicillin (Sigma Aldrich, Steinheim, Germany) and 100 µg/ml streptomycin (Sigma Aldrich, Steinheim, Germany). Growth conditions were 37 °C, 5 % CO2 and saturated air-humidity[60].
HEK293T-Gα16gust44 cells were seeded on poly-D-lysine (10 µg/ml) coated 96-well plates to reach a confluence of 40-60 % the next day. For transient transfection 150 ng of plasmid DNA containing the receptor of interest and 0.3 µl lipofectamine 2000 (Thermo Fisher Scientific, Darmstadt, Germany) per well were used and transfection took place according to the manual of lipofectamine 2000. […] The empty vector DNA (mock) was transfected as negative control[14],[41].
Cells were loaded using the calcium-sensitive fluorescent dye Fluo-4-AM (Abcam, Cambridge, Great Britain) in the presence of 2.5 mM probenecid (Sigma-Aldrich, Steinheim, Germany) the day after transfection[13],[41]. 1 h after loading, cells were washed with C1 buffer using a BioTek Cell Washer, incubated in the dark for half an hour and washed again. For automated agonist application and measurement of fluorescence changes, a FLIPR^TETRA device (Molecular Devices, San José, United States) was used. Viability of cells was tested by application of 100 nM Somatostatin 14 (Bachem, Bubendorf, Switzerland)[42].
Measured data were negative control corrected by subtracting the signal of the mock-transfected cells and exported to Microsoft Excel using the FLIPR software ScreenWorks 4.2. In Microsoft Excel software, standardization of maximum fluorescence intensities to the basal fluorescence and normalization to the buffer-only control was done to calculate the relative fluorescence changes (ΔF/F).
Initial screening experiments performed in duplicate wells were confirmed by at least one replication and representative traces were selected for display. All dose-response relationships were determined by three independent experiments (biological replicates) performed in duplicates (technical replicates). Threshold concentrations, defined as lowest substance concentrations leading to statistically significant elevated fluorescence changes in receptor-transfected cells compared with empty vector-transfected cells, were determined using SigmaPlot with Student’s t-test to evaluate statistical significance (p < 0.01).

## C[C@H](CCC(=O)O)[C@H]1CC[C@H]2[C@@H]3[C@H](O)C[C@@H]4C[C@H](O)CC[C@]4(C)[C@H]3C[C@H](O)[C@]12C [Cholic Acid, cholic acid]
  EC50: 20.6 ± 5.1 µM
  RLU: 487.07 RLU
Time (s) 0, sheet Tas2r117, time trace
  RLU: 0 RLU
Time (s) 2, sheet Tas2r117, time trace
  RLU: 4.604 RLU
Time (s) 4, sheet Tas2r117, time trace
  RLU: 10.2904 RLU
Time (s) 6, sheet Tas2r117, time trace
  RLU: -0.8806 RLU
Time (s) 8, sheet Tas2r117, time trace
  RLU: 6.861 RLU
Time (s) 12, sheet Tas2r117, time trace
  RLU: -14.1517 RLU
Time (s) 14, sheet Tas2r117, time trace
  RLU: 7.665 RLU
Time (s) 16, sheet Tas2r117, time trace
  RLU: -9.341 RLU
Time (s) 18, sheet Tas2r117, time trace
  RLU: -12.0783 RLU
Time (s) 18.797, sheet Tas2r117, time trace
  RLU: -24.6076 RLU
Time (s) 20.797, sheet Tas2r117, time trace
  RLU: -3.383 RLU
Time (s) 22.797, sheet Tas2r117, time trace
  RLU: 39.9085 RLU
Time (s) 24.797, sheet Tas2r117, time trace
  RLU: 65.6016 RLU
Time (s) 26.797, sheet Tas2r117, time trace
  RLU: 75.6489 RLU
Time (s) 28.797, sheet Tas2r117, time trace
  RLU: 128.888 RLU
Time (s) 30.797, sheet Tas2r117, time trace
  RLU: 168.759 RLU
Time (s) 32.797, sheet Tas2r117, time trace
  RLU: 221.976 RLU
Time (s) 34.797, sheet Tas2r117, time trace
  RLU: 270.035 RLU
Time (s) 36.797, sheet Tas2r117, time trace
  RLU: 288.662 RLU
Time (s) 38.797, sheet Tas2r117, time trace
  RLU: 310.785 RLU
Time (s) 40.797, sheet Tas2r117, time trace
  RLU: 342.959 RLU
Time (s) 42.797, sheet Tas2r117, time trace
  RLU: 363.04 RLU
Time (s) 44.797, sheet Tas2r117, time trace
  RLU: 380.411 RLU
Time (s) 46.797, sheet Tas2r117, time trace
  RLU: 395.355 RLU
Time (s) 48.797, sheet Tas2r117, time trace
  RLU: 398.151 RLU
Time (s) 50.797, sheet Tas2r117, time trace
  RLU: 423.224 RLU
Time (s) 52.797, sheet Tas2r117, time trace
  RLU: 441.862 RLU
Time (s) 54.797, sheet Tas2r117, time trace
  RLU: 446.522 RLU
Time (s) 56.797, sheet Tas2r117, time trace
  RLU: 453.199 RLU
Time (s) 58.797, sheet Tas2r117, time trace
  RLU: 444.318 RLU
Time (s) 60.797, sheet Tas2r117, time trace
  RLU: 456.236 RLU
Time (s) 62.797, sheet Tas2r117, time trace
  RLU: 461.012 RLU
Time (s) 64.797, sheet Tas2r117, time trace
  RLU: 474.623 RLU
Time (s) 66.797, sheet Tas2r117, time trace
  RLU: 445.559 RLU
Time (s) 70.797, sheet Tas2r117, time trace
  RLU: 480.113 RLU
Time (s) 72.797, sheet Tas2r117, time trace
  RLU: 466.131 RLU
Time (s) 74.797, sheet Tas2r117, time trace
  RLU: 473.506 RLU
Time (s) 76.797, sheet Tas2r117, time trace
  RLU: 498.186 RLU
Time (s) 78.797, sheet Tas2r117, time trace
  RLU: 506.034 RLU
Time (s) 80.797, sheet Tas2r117, time trace
  RLU: 507.589 RLU
Time (s) 82.797, sheet Tas2r117, time trace
  RLU: 514.994 RLU
Time (s) 84.797, sheet Tas2r117, time trace
  RLU: 484.679 RLU
Time (s) 86.797, sheet Tas2r117, time trace
  RLU: 500.585 RLU
Time (s) 88.797, sheet Tas2r117, time trace
  RLU: 496.095 RLU
Time (s) 90.797, sheet Tas2r117, time trace
  RLU: 517.962 RLU
Time (s) 92.797, sheet Tas2r117, time trace
  RLU: 513.104 RLU
Time (s) 94.797, sheet Tas2r117, time trace
  RLU: 501.803 RLU
Time (s) 96.797, sheet Tas2r117, time trace
  RLU: 495.693 RLU
Time (s) 98.797, sheet Tas2r117, time trace
  RLU: 496.063 RLU
Time (s) 100.797, sheet Tas2r117, time trace
  RLU: 476.828 RLU
Time (s) 102.797, sheet Tas2r117, time trace
  RLU: 478.659 RLU
Time (s) 104.797, sheet Tas2r117, time trace
  RLU: 493.353 RLU
Time (s) 106.797, sheet Tas2r117, time trace
  RLU: 481.214 RLU
Time (s) 108.797, sheet Tas2r117, time trace
  RLU: 477.549 RLU
Time (s) 110.797, sheet Tas2r117, time trace
  RLU: 489.03 RLU
Time (s) 112.797, sheet Tas2r117, time trace
  RLU: 467.178 RLU
Time (s) 114.797, sheet Tas2r117, time trace
  RLU: 460.468 RLU
Time (s) 116.797, sheet Tas2r117, time trace
  RLU: 475.775 RLU
Time (s) 118.797, sheet Tas2r117, time trace
  RLU: 475.734 RLU
Time (s) 120.797, sheet Tas2r117, time trace
  RLU: 478.85 RLU
Time (s) 122.797, sheet Tas2r117, time trace
  RLU: 455.77 RLU
Time (s) 124.797, sheet Tas2r117, time trace
  RLU: 448.646 RLU
Time (s) 126.797, sheet Tas2r117, time trace
  RLU: 473.935 RLU
Time (s) 128.797, sheet Tas2r117, time trace
  RLU: 443.919 RLU
Time (s) 130.797, sheet Tas2r117, time trace
  RLU: 439.491 RLU
Time (s) 132.797, sheet Tas2r117, time trace
  RLU: 446.634 RLU
Time (s) 134.797, sheet Tas2r117, time trace
  RLU: 438.919 RLU
Time (s) 136.797, sheet Tas2r117, time trace
  RLU: 440.652 RLU
Time (s) 137.562, sheet Tas2r117, time trace
  RLU: 432.872 RLU
Time (s) 143.578, sheet Tas2r117, time trace
  RLU: 412.03 RLU
Time (s) 149.578, sheet Tas2r117, time trace
  RLU: 376.064 RLU
Time (s) 155.578, sheet Tas2r117, time trace
  RLU: 372.116 RLU
Time (s) 161.578, sheet Tas2r117, time trace
  RLU: 346.14 RLU
Time (s) 167.578, sheet Tas2r117, time trace
  RLU: 348.952 RLU
Time (s) 173.578, sheet Tas2r117, time trace
  RLU: 334.535 RLU
Time (s) 179.578, sheet Tas2r117, time trace
  RLU: 329.157 RLU
Time (s) 191.578, sheet Tas2r117, time trace
  RLU: 289.619 RLU
Time (s) 197.578, sheet Tas2r117, time trace
  RLU: 289.013 RLU
Time (s) 209.578, sheet Tas2r117, time trace
  RLU: 239.803 RLU
Time (s) 221.578, sheet Tas2r117, time trace
  RLU: 142.758 RLU
Time (s) 233.578, sheet Tas2r117, time trace
  RLU: 144.622 RLU
Time (s) 239.578, sheet Tas2r117, time trace
  RLU: 165.061 RLU
Time (s) 245.578, sheet Tas2r117, time trace
  RLU: 139.32 RLU
Time (s) 293.578, sheet Tas2r117, time trace
  RLU: 116.805 RLU
Time (s) 299.578, sheet Tas2r117, time trace
  RLU: 113.227 RLU
Time (s) 305.578, sheet Tas2r117, time trace
  RLU: 94.7752 RLU
Time (s) 311.578, sheet Tas2r117, time trace
  RLU: 118.792 RLU
Time (s) 317.578, sheet Tas2r117, time trace
  RLU: 98.6072 RLU
Time (s) 323.578, sheet Tas2r117, time trace
  RLU: 115.27 RLU
Time (s) 329.578, sheet Tas2r117, time trace
  RLU: 87.0157 RLU
Time (s) 335.578, sheet Tas2r117, time trace
  RLU: 73.721 RLU
Time (s) 341.578, sheet Tas2r117, time trace
  RLU: 98.5271 RLU
Time (s) 347.578, sheet Tas2r117, time trace
  RLU: 75.5864 RLU
Time (s) 353.578, sheet Tas2r117, time trace
  RLU: 82.9151 RLU
Time (s) 359.578, sheet Tas2r117, time trace
  RLU: 69.2265 RLU
P < 0.01 vs empty vector
  Activation threshold concentration Tas2r117: 10 µM
